# Measured values from paper PMC12401824, “Studies on the impact of modifications at the Gln-Trp site in RM2-based GRPR ligands” (EJNMMI Research, 2025).
# Where “and” joins values, the source holds several entries; their conditions need not be identical. Equal values may be shown once. Entries after “also recorded” stand apart in the source; their conditions may differ. Read-outs that look alike come from different tables or passages of the source. Starred links: 1 amine or outer side, 2 acyl side, 3 side chain; linkers in the order of their positions; H or OH if unused. Non-standard residues stand in square brackets, D forms with d. Residues, ends and D or L forms follow the SMILES beside them. *: point of attachment. DOTA = O=C(O)CN1CCN(CC(=O)O)CCN(CC(=O)*)CCN(CC(=O)O)CC1; Sta = CC(C)C[C@H](N)[C@@H](O)CC(=O)O; Bta = N[C@@H](Cc1csc2ccccc12)C(=O)O; X1 = O=C(CN1CCC(N[*:1])CC1)[*:2]; hSer = N[C@@H](CCO)C(=O)O
# Tests used:
# PC-3 tumor xenograft = experiment: Competition study: co-injection of excess Lu-RM2 in PC-3 tumor-bearing mice; format: in vivo; conditions: ^177Lu-labeled, 100 pmol; co-injection of 40 nmol Lu-RM2; 1 h p.i.; n = 3
# Procedure: µPET/CT imaging. Imaging studies were performed at a MILabs VECTor^4 small-animal SPECT/PET/OI/CT device (MILabs, Utrecht, the Netherlands). Data were reconstructed using the MILabs Rec software (version 10.02) and a pixel-based Similarity-Regulated Ordered Subsets Expectation Maximization (SROSEM) algorithm, followed by data analysis using the PMOD4.0 software (PMOD TECHNOLOGIES LLC, Zurich, Switzerland). […] Static images were recorded at 1 h p.i. with an acquisition time of 45–60 min (3–4 frames, 15 min each) using the HE-GP-RM collimator and a step-wise multi-planar bed movement. Depending on the size of the mouse, either four or eight bed position were required, with an imaging time of ~ 1.8 min or ~ 3.6 min per bed position. For competition studies, 3.62 mg/kg (40 nmol) of Lu-RM2 (10^−3 M in PBS) were co-administered.
# Figure S6. […] Data are expressed as mean ± SD (n = 4). […] Data are expressed as mean ± SD (n = 3).
# [1] = Metabolic stability in vivo in mice (intact tracer in serum); conditions: ^177Lu-labeled, healthy mice
# Procedure: Metabolic stability in vivo was determined according to a previously published protocol by injecting approximately 30–40 MBq (1 nmol, 150 µL) of the ^177Lu-labeled compounds into the tail vein of anesthetized CB17-SCID mice (n = 3).
# [2] = Biodistribution in PC-3 tumor-bearing CB17-SCID mice; format: in vivo; conditions: mouse, intravenous, 100 pmol, ^177Lu-labeled, 100 pmol, n = 4; for tissue uptake at 1 h: 1 h p.i.; for tissue uptake at 24 h: 24 h p.i.
# Procedure: To establish tumor xenografts, PC-3 cells (5.0 × 10^6 cells per 200 µL) were suspended in a 1/1 mixture (v/v) of Dulbecco’s modified eagle's medium/Ham’s F-12 with Glutamax-I (v/v = 1/1) and Cultrex® Basement Membrane Matrix Type 3 (Trevigen Inc., Gaithersburg, MD, USA) and inoculated subcutaneously onto the right shoulder of CB17-SCID mice (Charles River Laboratories International Inc., Sulzfeld, Germany). Mice (n = 4) were used for experiments when tumor volume has reached 125–500 mm^3 (2–3 weeks after inoculation).
# Biodistribution. […] (n = 4), respectively. Selected organs were removed, weighted and measured in a γ-counter.
# [3] = adrenal, read-out: Uptake in Adrenal
# [4] = blood, read-out: Uptake in Blood
# [5] = heart, read-out: Uptake in Heart
# [6] = intestine, read-out: Uptake in Intestine
# [7] = kidney, read-out: Uptake in Kidney
# [8] = liver, read-out: Uptake in Liver
# [9] = muscle, read-out: Uptake in Muscle
# [10] = pancreas, read-out: Uptake in Pancreas
# [11] = spleen, read-out: Uptake in Spleen
# [12] = stomach, read-out: Uptake in Stomach
# [13] = tumor, read-out: Uptake in Tumor
Compound,Specificity of tumor accumulation (competition with excess of Lu-RM2) (PC-3 tumor xenograft),"Intact compound in murine serum in vivo, 15 min after injection [1]","Intact compound in murine serum in vivo, 30 min after injection [1]","tissue uptake at 1 h [2, 3]","tissue uptake at 24 h [2, 3]","tissue uptake at 1 h [2, 4]","tissue uptake at 24 h [2, 4]","tissue uptake at 1 h ([2]; bone, read-out: Uptake in Bone)","tissue uptake at 24 h ([2]; bone, read-out: Uptake in Bone)","tissue uptake at 1 h [2, 5]","tissue uptake at 24 h [2, 5]","tissue uptake at 1 h [2, 6]","tissue uptake at 24 h [2, 6]","tissue uptake at 1 h [2, 7]","tissue uptake at 24 h [2, 7]","tissue uptake at 1 h [2, 8]","tissue uptake at 24 h [2, 8]","tissue uptake at 1 h ([2]; lung, read-out: Uptake in Lung)","tissue uptake at 24 h ([2]; lung, read-out: Uptake in Lung)","tissue uptake at 1 h [2, 9]",further results
"CC(C)C[C@H](NC(=O)C[C@H](O)[C@H](CC(C)C)NC(=O)[C@H](Cc1c[nH]cn1)NC(=O)CNC(=O)[C@@H](NC(=O)[C@H](C)NC(=O)[C@H](Cc1csc2ccccc12)NC(=O)[C@H](CCC(N)=O)NC(=O)[C@@H](Cc1ccccc1)NC(=O)CN1CCC(NC(=O)CN2CCN(CC(=O)O)CCN(CC(=O)O)CCN(CC(=O)O)CC2)CC1)C(C)C)C(N)=O [[^177Lu]Lu-[Bta^8]RM2, metal not drawn] ({DOTA}-[X1][dF]Q[Bta]AVGH[Sta]L-NH2)",specific,< 20% and ~ 10%,did not show any intact; also recorded: could not detect any intact,1.1 ± 0.1 %ID/g,0.59 ± 0.33 %ID/g,1.6 ± 0.1 %ID/g,0.04 ± 0.04 %ID/g,0.9 %ID/g,2.58 ± 1.05 %ID/g,0.7 %ID/g,0.09 ± 0.01 %ID/g,1 ± 0.3 %ID/g,0.28 ± 0.07 %ID/g,4.4 ± 0.4 %ID/g,2.07 ± 0.23 %ID/g,1.1 ± 0.1 %ID/g,0.77 ± 0.09 %ID/g,1.8 ± 0.2 %ID/g,0.22 ± 0.11 %ID/g,0.2 ± 0.1 %ID/g,"tissue uptake at 24 h [2, 9]: 0.02 ± 0.02 %ID/g; tissue uptake at 1 h [2, 10]: 3.7 ± 1.4 %ID/g; tissue uptake at 24 h [2, 10]: 0.17 ± 0.02 %ID/g; tissue uptake at 24 h [2, 11]: 0.32 ± 0.06 %ID/g; tissue uptake at 1 h [2, 12]: 1.3 ± 0.3 %ID/g; tissue uptake at 24 h [2, 12]: 0.27 ± 0.08 %ID/g; tissue uptake at 1 h [2, 13]: 12.1 ± 1.8 %ID/g; tissue uptake at 24 h [2, 13]: ~2 %ID/g"
"CC(C)C[C@H](NC(=O)C[C@H](O)[C@H](CC(C)C)NC(=O)[C@H](Cc1c[nH]cn1)NC(=O)CNC(=O)[C@@H](NC(=O)[C@H](C)NC(=O)[C@H](Cc1c[nH]c2ccccc12)NC(=O)[C@H](CCO)NC(=O)[C@@H](Cc1ccccc1)NC(=O)CN1CCC(NC(=O)CN2CCN(CC(=O)O)CCN(CC(=O)O)CCN(CC(=O)O)CC2)CC1)C(C)C)C(N)=O [[^177Lu]Lu-[Hse^7]RM2, metal not drawn] ({DOTA}-[X1][dF][hSer]WAVGH[Sta]L-NH2)",specific,< 20% and ~ 19%,did not show any intact; also recorded: could not detect any intact,1.2 ± 0.5 %ID/g,0.61 ± 0.21 %ID/g,1 ± 0.2 %ID/g,0.02 %ID/g,0.2 %ID/g,2.37 ± 1.13 %ID/g,0.4 ± 0.1 %ID/g,0.11 ± 0.03 %ID/g,1.6 ± 0.2 %ID/g,0.38 ± 0.11 %ID/g,4.8 ± 0.3 %ID/g,1.94 ± 0.28 %ID/g,0.9 ± 0.1 %ID/g,0.96 ± 0.15 %ID/g,0.9 ± 0.2 %ID/g,0.17 ± 0.02 %ID/g,0.2 %ID/g,"tissue uptake at 24 h [2, 9]: 0.01 %ID/g; tissue uptake at 1 h [2, 10]: 8 ± 0.5 %ID/g; tissue uptake at 24 h [2, 10]: 0.14 ± 0.01 %ID/g; tissue uptake at 1 h [2, 11]: 0.6 ± 0.2 %ID/g; tissue uptake at 24 h [2, 11]: 0.36 ± 0.03 %ID/g; tissue uptake at 1 h [2, 12]: 2.2 ± 0.3 %ID/g; tissue uptake at 24 h [2, 12]: 0.26 ± 0.01 %ID/g; tissue uptake at 1 h [2, 13]: 16.6 ± 1.6 %ID/g; tissue uptake at 24 h [2, 13]: ~2 %ID/g"
